# Laboratory results from patent US20250009747A1, “ENDOTHELIN RECEPTOR ANTAGONISTS FOR USE IN TREATING OR PREVENTING MUSCLE FIBROSIS” (ASSOCIATION INSTITUT DE MYOLOGIE, priority 2021, published 2025).
# Entries after “also recorded” stand apart in the source; their conditions may differ. Square brackets hold non-standard residues; d marks the D form. Peptide text beside a SMILES is read from it.
# Legend:
# Format in all cases: cell-based, human
# [1] = tested on: FAPs from M^CT, FibM^CT and FibM^OP; assay: COL7A1 immunostaining as a readout of ECM production in FAPs treated with ET-1 +/- antagonist; conditions: 3 days
# From the text: (§1) Human FAPs cells were isolated from muscle biopsies obtained during surgical procedures via Myobank, affiliated to EuroBioBank, after informed consent in accordance with European recommendations and French legislation (authorization AC-2019-3502). Human FAPs isolated here as the CD56 negative cell fraction (Périé, S. et al. 2006), are obtained from control skeletal muscle: M^CT, control fibrotic cricopharyngeal muscle (CPM): FibM^CT, OPMD fibrotic CPM with exacerbated levels of fibrosis: FibM^OP, and fibrotic muscle from inclusion body myositis patients: FibM^IBM. All tested fibrotic muscle are skeletal fibrotic muscle. These cells expressed predominantly PDGFRa, CD90 and CD105 known markers of Fibro/Adipogenic Progenitors (FAPs) in human skeletal muscle. The tissue type, cell type, age, pathological condition and muscle fibrotic state of each biopsy sample are specified in table below.
# (§2) The muscle biopsies were finely minced and explants were plated onto non-coated Petri dishes in drops of fetal bovine serum (FBS) (Invitrogen, Carlsbad, CA) as previously described (Bigot et al., 2009). Cells were cultivated at 37° C. in a humid atmosphere containing 5% CO2 and in growth medium consisting of 199 medium (Life technologies, Paisley, UK) and Dulbecco's Modified Eagle Medium (DMEM, Life technologies) in a 1:4 ratio supplemented with 20% Fetal Bovine Serum (FBS, Invitrogen), 25 μg/ml fetuin (Life technologies), 0.5 ng/mL bFGF (Life technologies), 5 ng/ml EGF (Life technologies), 5 μg/mL insulin (Sigma-Aldrich) and 50 μg/mL gentamycin (Life Technologies). Cells were labelled with CD56 antibody coupled to microbeads (130-050-401, MACS; Miltenyi Biotec, Paris, France) and then separated using a immunomagnetic cell sorting system (MACS) according to the manufacturer's instructions. The myogenic purity of both cell fractions (CD56+, myogenic and CD56−, non-myogenic) was monitored by immunocytochemistry using an antibody against desmin (clone D33, Dako, Trappes, France), exclusively expressed in myogenic cells.
# The method for quantification of ET-1 protein is described in Le Bihan et al. 2012. Treatment of FAPs to evaluate the effect of ET-1 was performed on 70-80% confluence cells that were rinsed twice with DMEM and treated 3 days with proliferation medium at 1% FBS (instead of 20%) containing either DMSO or 40 nM ET-1 (E7764, Sigma-Aldrich)+/−10 μM Bosentan (SML1265, Sigma Aldrich), 10 nM BQ788 (SML192621, Sigma Aldrich), or 10 nM BQ123 (B150, Sigma-Aldrich). For proliferation experiment, Edu (10 μM) was added at day 2 and cells were fixed 24 h later. EdU labeling was carried out using the Click-iT™ EdU Cell Proliferation Kit (C10338, Life Technologies) according to the manufacturer's instructions. […]
# [2] = tested on: FAPs from M^CT, FibM^CT and FibM^OP; assay: Edu proliferation of FAPs treated with ET-1 +/- antagonist; conditions: 3 days
# From the text: as §1
# as §2, with “Cells were labelled with CD56 antibody coupled to microbeads (130-050-401, MACS; Miltenyi Biotec, Paris, France) and then separated using a immunomagnetic cell sorting system (MACS) according to the manufacturer's instructions.” left out
# The method for quantification of ET-1 protein is described in Le Bihan et al. 2012. […]
# [3] = tested on: myoblast cocultured with FAPs from FibM^OP; assay: Coculture of myoblasts with FAPs from fibrotic muscle, fusion index; conditions: Bosentan 10 μM added at day 0 and day 3, fixed at day 5, myoblasts/FAPs 70%/30%
# Method: Non-myogenic (CD56-) and myogenic (CD56+) cells were seeded together at a 30%/70% ratio and at a final confluence of 21000 cells/cm2. Once the cells have adhered, the medium was replaced by a differentiation medium composed by DMEM with 50 μg/mL gentamycin. To study the effect of Bosentan on the fusion index in coculture 10 μM of Bosentan (SML1265, Sigma Aldrich) was added to the wells at day 0 and day 3. Cells were fixed at day 5 in 4% paraformaldehyde (PFA). The fusion index was calculated as the ratio between the number of nuclei per myotube (>2 nuclei) identified by a desmin staining and the total number of desmin+nuclei. Immunostaining were performed on cells fixed in 4% PFA for 10 minutes (min) and incubated with blocking solution (PBS 2% FBS 0.2% Triton) for 30 minutes (min). Fixed cells were then incubated 1 h with primary antibodies (COL7A1 […] Sigma Aldrich 1/800; Desmin […] Dako 1/50). Detection of immune complexes was performed using the appropriate Alexa-Fluor-secondary antibodies purchased from Life Technologies (Grand Island, NY) for 45 min. Nuclei and actin filament were counterstained with Hoechst and Phalloidin-Alexa 568 (Interchim 1/400) respectively.
smiles,measurement,setting,value
CC(C)C[C@@H]1NC(=O)[C@@H](C(C)C)NC(=O)[C@@H]2CCCN2C(=O)[C@@H](CC(=O)O)NC(=O)[C@@H](Cc2c[nH]c3ccccc23)NC1=O [BQ123] (cyclo(L[dW][dD]P[dV])),ECM production (percentage of COL7A1 positive cells),[1]; ET-1 40 nM + antagonist 10 nM,decrease of ECM production
CCCC[C@@H](NC(=O)[C@@H](Cc1cn(C(=O)OC)c2ccccc12)NC(=O)[C@H](CC(C)(C)C)NC(=O)N1[C@H](C)CCC[C@@H]1C)C(=O)O [BQ788],ECM production (percentage of COL7A1 positive cells),[1]; ET-1 40 nM + antagonist 10 nM,decrease of ECM production
same,proliferation (percentage of Edu positive cells),[2]; ET-1 40 nM + BQ788 10 nM,decrease of proliferation
COc1ccccc1Oc1c(NS(=O)(=O)c2ccc(C(C)(C)C)cc2)nc(-c2ncccn2)nc1OCCO [Bosentan],ECM production (percentage of COL7A1 positive cells),[1]; ET-1 40 nM + Bosentan 10 μM,partially abolished the effect of ET1
same,proliferation (percentage of Edu positive cells),[2]; ET-1 40 nM + Bosentan 10 μM,partially abolished the effect of ET1; also recorded: decrease of proliferation
same,fusion index,[3],partially restored to control levels
CC[C@H](C)[C@H](NC(=O)[C@H](CC(=O)O)NC(=O)[C@H](CC(C)C)NC(=O)[C@H](Cc1c[nH]cn1)NC(=O)[C@@H]1CSSC[C@H](N)C(=O)N[C@@H](CO)C(=O)N[C@H]2CSSC[C@H](NC(=O)[C@H](CCC(=O)O)NC(=O)[C@H](CCCCN)NC(=O)[C@H](CC(=O)O)NC(=O)[C@H](CCSC)NC(=O)[C@H](CC(C)C)NC(=O)[C@H](CO)NC(=O)[C@H](CO)NC2=O)C(=O)N[C@@H](C(C)C)C(=O)N[C@@H](Cc2ccc(O)cc2)C(=O)N[C@@H](Cc2ccccc2)C(=O)N1)C(=O)N[C@H](C(=O)N[C@@H](Cc1c[nH]c2ccccc12)C(=O)O)[C@@H](C)CC [ET1],ECM production (percentage of COL7A1 positive cells),"[1]; ET-1 40 nM, vs DMSO",increased
same,proliferation (percentage of Edu positive cells),"[2]; ET-1 40 nM, vs DMSO",increased
